Laboratory results from EP3290412A1, “HIV-1 NUCLEOCAPSID INHIBITORS” (Università degli Studi di Siena, priority 2016, dated 2018).
Read-outs that look alike come from different tables or passages of the source.

Legend:
Format in all cases: cell-based
[1] = tested on: HeLa cells; test: HeLa Proliferation assay (CellTiter Glo); conditions: 72 hours
How it was run: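 HeLa cells in phenol red-free DMEM + 10% FBS plated at 2000 cells/well, recovered 4 h, then exposed to compounds for 72 h at 37 °C, 5% CO2. Viability read by CellTiter Glo luminescence.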

[2] = tested on: Peripheral blood mononuclear cells (PBMC); conditions: human, 7 days
How it was run: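 Healthy-donor PBMC stimulated 2 days with 5 µg/mL PHA, then seeded at 1x10^5 cells/well in medium with 20 IU/mL IL-2 and exposed to compound for 7 days. Viability measured by MTS (4 h, OD 490 nm). TD50 interpolated from dose versus percent mortality relative to untreated cells.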

[3] = tested on: HIV-1 reference strain NL4-3; test: BiCycle assay (MT-2 then TZM-bl cells)
How it was run: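 MT-2 cells were infected with NL4-3 in the presence of five-fold compound dilutions. After 72 h, the supernatant was passed to TZM-bl cells. Two days later, luciferase luminescence was read and IC50 calculated, giving a readout that spans the whole replication cycle.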

[4] = Human immunodeficiency virus 1, NL43, TZM-bl, read-out: BiCycle IC50 nM

## C[C@@H](NC(=O)c1nc(-c2cc(C(=O)OCc3ccccc3)ccn2)nc(O)c1O)C1CCCCC1 [Compound 46, benzyl (R)-2-(4-((1-cyclohexylethyl)carbamoyl)-5,6-dihydroxypyrimidin-2-yl)isonicotinate]
[1]
  Proliferation assay HELA TD50: 6.4784 µM
[2]
  Proliferation assay PBMC TD50: 1000 nM
[3]; [4]
  IC50: 543 nM

## O=C(NCC1CCC1)c1nc(-c2cc3ccccc3cn2)nc(O)c1O [Compound 47, N-(cyclobutylmethyl)-5,6-dihydroxy-2-(isoquinolin-3-yl)pyrimidine-4-carboxamide]
[1]
  Proliferation assay HELA TD50: 3.3326 µM
[2]
  Proliferation assay PBMC TD50: 4900 nM
[3]; [4]
  IC50: 870 nM

## C[C@@H](NC(=O)c1nc(-c2cc(N)ccn2)nc(O)c1O)C1CCCCC1 [Compound 48, (R)-2-(4-aminopyridin-2-yl)-N-(1-cyclohexylethyl)-5,6-dihydroxypyrimidine-4-carboxamide]
[1]
  Proliferation assay HELA TD50: 1.5496 µM
[2]
  Proliferation assay PBMC TD50: 2600 nM
[3]; [4]
  IC50: 1340 nM

## C[C@@H](NC(=O)c1nc(-c2ccc(Cl)cn2)nc(O)c1O)C1CCCCC1 [Compound 49, (R)-2-(5-chloropyridin-2-yl)-N-(1-cyclohexylethyl)-5,6-dihydroxypyrimidine-4-carboxamide]
[1]
  Proliferation assay HELA TD50: 2.0999 µM
[2]
  Proliferation assay PBMC TD50: 3400 nM
[3]; [4]
  IC50: 352 nM

## C[C@@H](NC(=O)c1nc(-c2ccc(C(=O)NCc3ccccc3)cn2)nc(O)c1O)C1CCCCC1 [Compound 50, (R)-2-(5-(benzylcarbamoyl)pyridin-2-yl)-N(1-cyclohexylethyl)-5,6-dihydroxypyrimidine-4-carboxamide]
[1]
  Proliferation assay HELA TD50: 2.2912 µM
[2]
  Proliferation assay PBMC TD50: 2200 nM
[3]; [4]
  IC50: 348 nM

## C[C@@H](NC(=O)c1nc(-c2ccc(C(N)=O)cn2)nc(O)c1O)C1CCCCC1 [Compound 51, (R)-2-(5-carbamoylpyridin-2-yl)-N-(1-cyclohexylethyl)-5,6-dihydroxypyrimidine-4-carboxamide]
[1]
  Proliferation assay HELA TD50: 26.976 µM
[2]
  Proliferation assay PBMC TD50: 8000 nM
[3]; [4]
  IC50: 10600 nM

## C[C@H](NC(=O)c1nc(-c2cc(C(F)(F)F)ccn2)nc(O)c1O)C1CCCCC1 [Compound 52, (S)-N-(1-cyclohexylethyl)-5,6-dihydroxy-2-(4-(trifluoromethyl)pyridin-2-yl)pyrimidine-4-carboxamide]
[1]
  Proliferation assay HELA TD50: 10.186 µM
[2]
  Proliferation assay PBMC TD50: 1200 nM
[3]; [4]
  IC50: 433 nM

## C[C@@H](NC(=O)c1nc(-c2ccc(CNCc3ccccc3)cn2)nc(O)c1O)C1CCCCC1 [Compound 53, (R)-2-(5-((benzylamino)methyl)pyridin-2-yl)-N-(1-cyclohexylethyl)-5,6-dihydroxypyrimidine-4-carboxamide]
[1]
  Proliferation assay HELA TD50: 2.8763 µM
[2]
  Proliferation assay PBMC TD50: 790 nM
[3]; [4]
  IC50: 530 nM

## C[C@@H](NC(=O)c1nc(-c2cccc(C(=O)OCc3ccccc3)n2)nc(O)c1O)C1CCCCC1 [Compound 54, benzyl (R)-6-(4-((1-cyclohexylethyl)carbamoyl)-5,6-dihydroxypyrimidin-2-yl)picolinate]
[1]
  Proliferation assay HELA TD50: 24.972 µM
[2]
  Proliferation assay PBMC TD50: 25000 nM
[3]; Human immunodeficiency virus 1, NL43, MT-2 cells 72 hours then TZM-bl cells two days, NL4-3, read-out: BiCycle IC50
  IC50: 422 nM

## CC1CCC(NC(=O)c2nc(-c3ccccn3)nc(O)c2O)CC1 (stereo not drawn) [Compound 56, 5,6-dihydroxy-N-(4-methylcyclohexyl)-2-(pyridin-2-yl)pyrimidine-4-carboxamide]
[1]
  Proliferation assay HELA TD50: 3.2039 µM
[2]
  Proliferation assay PBMC TD50: 4600 nM
[3]; [4]
  IC50: 341 nM

## CC1CCCC(NC(=O)c2nc(-c3ccccn3)nc(O)c2O)C1 (stereo not drawn) [Compound 57, 5,6-dihydroxy-N-(3-methylcyclohexyl)-2-(pyridin-2-yl)pyrimidine-4-carboxamide]
[1]
  Proliferation assay HELA TD50: 1.9094 µM
[2]
  Proliferation assay PBMC TD50: 2700 nM
[3]; [4]
  IC50: 432 nM

## CC1(C)CCC(NC(=O)c2nc(-c3ccccn3)nc(O)c2O)CC1 [Compound 58, N-(4,4-dimethylcyclohexyl)-5,6-dihydroxy-2-(pyridin-2-yl)pyrimidine-4-carboxamide]
[1]
  Proliferation assay HELA TD50: 2.0452 µM
[2]
  Proliferation assay PBMC TD50: 1600 nM
[3]; [4]
  IC50: 268 nM
